# According to article PMC12881674, “Activation of TRPV3 channels in bladder cancer cells stimulates ATP release” (Molecular Pharmacology, 2025):
# Columns and labels:
# mouse TRPV2 = target: T1, mouse TRPV2 (Mus musculus, UniProt Q9WTR1); experiment: fluo-4 Ca2+ assay selectivity, HEK cells expressing mouse TRPV2; assay type: cell-based; details: concentrations up to 50 μM
# T1 construct: expressed in transfected cells; host or cells: HEK293
# T1 sequence (Q9WTR1 1-756): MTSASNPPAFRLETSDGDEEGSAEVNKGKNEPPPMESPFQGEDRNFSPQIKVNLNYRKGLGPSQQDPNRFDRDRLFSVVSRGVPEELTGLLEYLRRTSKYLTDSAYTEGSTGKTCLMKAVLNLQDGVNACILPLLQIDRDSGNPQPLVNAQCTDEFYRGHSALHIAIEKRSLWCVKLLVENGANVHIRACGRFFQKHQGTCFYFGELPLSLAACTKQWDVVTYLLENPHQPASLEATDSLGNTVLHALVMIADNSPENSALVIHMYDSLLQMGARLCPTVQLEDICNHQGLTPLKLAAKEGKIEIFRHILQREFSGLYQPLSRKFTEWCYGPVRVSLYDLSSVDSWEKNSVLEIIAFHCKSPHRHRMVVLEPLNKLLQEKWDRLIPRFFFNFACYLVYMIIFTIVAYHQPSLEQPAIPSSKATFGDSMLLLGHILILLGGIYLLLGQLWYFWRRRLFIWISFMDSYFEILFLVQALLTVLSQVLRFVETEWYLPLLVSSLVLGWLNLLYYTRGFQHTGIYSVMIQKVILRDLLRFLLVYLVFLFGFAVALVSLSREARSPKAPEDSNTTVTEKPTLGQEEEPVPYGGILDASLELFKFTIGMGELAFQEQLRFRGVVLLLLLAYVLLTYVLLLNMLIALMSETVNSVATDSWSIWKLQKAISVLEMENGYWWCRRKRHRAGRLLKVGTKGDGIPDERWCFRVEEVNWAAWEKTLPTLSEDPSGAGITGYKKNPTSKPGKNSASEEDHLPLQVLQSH
# Description: (§1) KU-19-19 (DSMZ no. ACC 395), CAL-29 (DSMZ no. ACC 515), 647-V (DSMZ no. ACC 414), RT-4 (DSMZ no. ACC 412), and RT-112 (DSMZ no. ACC 418) bladder cancer cell lines were obtained from the Leibniz Institute DSMZ (German Collection of Microorganisms and Cell Cultures). Human TRPV3 (NM_145068, purchased from OriGene) and mouse TRPV3 (NM_001371006), rat TRPV1, mouse TRPV2, mouse TRPV4, human TRPM2, human TRPM8, and human TRPA1 were stably transfected in HEK293 cells as described before.[27] […]
# (§2) All fluorometric Ca^2+ assays were performed in HBS buffer at room temperature. […] For the primary compound screening and the generation of concentration-response analyses, a robotic liquid handling station (Freedom Evo 150; Tecan) with a built-in custom-made fluorescence plate imager was used. […] Fluorescence was excited using a 470-nm light-emitting diode, and emitted light was imaged through a 515-nm–long pass filter with a cooled Zyla 5.5 camera (Andor). Fluorescence was recorded and processed under the control of the μ-Manager 2.0 gamma software (https://micro-manager.org.[28]). After recording baseline fluorescence, compounds were dispensed into the wells via the liquid handling device. […] For further analysis, fluorescence signals were calculated for each well, corrected for background intensities and normalized to the initial signals. […]
# human TRPA1 = target: T2, human TRPA1 (Homo sapiens, UniProt O75762); experiment: fluo-4 Ca2+ assay selectivity, HEK cells expressing human TRPA1; assay type: cell-based
# T2 construct: expressed in transfected cells; host or cells: HEK293
# T2 sequence (O75762 whole entry): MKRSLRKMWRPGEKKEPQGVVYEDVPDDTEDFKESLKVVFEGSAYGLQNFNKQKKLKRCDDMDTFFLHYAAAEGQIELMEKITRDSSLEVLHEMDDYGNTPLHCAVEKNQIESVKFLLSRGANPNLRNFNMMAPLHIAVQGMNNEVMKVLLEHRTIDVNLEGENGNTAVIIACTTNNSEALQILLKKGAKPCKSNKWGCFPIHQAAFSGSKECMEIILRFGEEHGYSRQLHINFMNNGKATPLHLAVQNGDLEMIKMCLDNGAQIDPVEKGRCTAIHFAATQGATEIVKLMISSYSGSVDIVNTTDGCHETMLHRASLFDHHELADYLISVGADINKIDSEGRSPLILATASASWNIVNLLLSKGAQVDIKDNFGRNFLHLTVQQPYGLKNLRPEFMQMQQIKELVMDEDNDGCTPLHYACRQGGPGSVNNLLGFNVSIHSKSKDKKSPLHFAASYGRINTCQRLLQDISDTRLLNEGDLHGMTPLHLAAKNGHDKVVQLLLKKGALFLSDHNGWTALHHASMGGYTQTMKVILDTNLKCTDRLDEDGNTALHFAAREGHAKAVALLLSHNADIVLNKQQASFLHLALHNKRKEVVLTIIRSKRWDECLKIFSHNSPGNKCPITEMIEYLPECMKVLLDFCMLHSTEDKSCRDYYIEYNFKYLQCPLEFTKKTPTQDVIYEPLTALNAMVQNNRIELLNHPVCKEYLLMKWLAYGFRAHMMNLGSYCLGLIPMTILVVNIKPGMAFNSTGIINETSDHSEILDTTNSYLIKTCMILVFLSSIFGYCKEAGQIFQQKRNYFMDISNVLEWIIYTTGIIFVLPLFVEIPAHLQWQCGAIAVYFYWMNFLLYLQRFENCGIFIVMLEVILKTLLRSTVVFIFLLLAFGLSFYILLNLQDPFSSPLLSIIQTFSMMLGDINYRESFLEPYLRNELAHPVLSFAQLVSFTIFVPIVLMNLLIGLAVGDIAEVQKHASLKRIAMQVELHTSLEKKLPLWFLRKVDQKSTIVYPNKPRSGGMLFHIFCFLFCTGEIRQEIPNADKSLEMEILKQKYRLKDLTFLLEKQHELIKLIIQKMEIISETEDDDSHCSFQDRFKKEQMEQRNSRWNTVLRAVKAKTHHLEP
# Description: as §1, §2
smiles,measurement,setting,value
COC(=O)C12CN(Cc3ccccc3)CC1(C(=O)OC)CN(Cc1ccccc1)C2 (centres unmarked) [AV3-1],effect on TRPV2,mouse TRPV2,no effect
same,effect on TRPA1,human TRPA1,activates
